Results: US20240307374A1, “FORMULATION OF FURIN INHIBITOR FOR INHALATION” (BP ASSET V, INC., priority 2021, published 2024)
“Also recorded” adds a separate entry of the source. Where two headings read alike, the source gives them in different places.

Experiments:
Format in all cases: physicochemical
Grinding stability = details: ~30 mg ground manually in a mortar for about 5 minutes
[1] = Complexation stability constant test: solubility in SBECD solutions; details: for solubility at 24 h: thermodynamic from solid
Description: Additional solid was added into the sample to generate suspension if clear solution was obtained. The suspension was equilibrated via stirring (1000 rpm) for 24 hours. The suspension was centrifuged to obtain precipitate and supernatants. Solubility and pH was determined for the supernatants after filtration, and XRPD was obtained for the isolated precipitate.

[2] = Thermodynamic relationships study: slurry competition in acetone/H2O systems; details: RT
Description: Slurry competition was conducted in acetone/H2O systems with various water activities (0.0-1.0). […] Solids were separated and tested by XRPD.
To measure the solubility of freeform in acetone/H2O systems with various water activities, the above experiments were re-performed with addition of aw=0.3 acetone/H2O system. The suspension sample was centrifuged to obtain precipitate and supernatants. Solubility was tested for the supernatants after filtration, and isolated precipitate was tested by XRPD.
Solids were separated and tested by XRPD.

[3] = Humidity induced experiments (solid-state stability of freeform Type D under different humidities); details: ~7%, ~22%, ~43%, ~58%, ~84% RH, RT, 6 weeks
Description: The 3-mL vial was then placed into a 20-mL vial with 4 mL of the corresponding saturated salt solution. The 20-mL vial was sealed with a cap and kept at RT for the water vapor to interact with the solid.

[4] = In situ salt solubility test (citric acid, fumaric acid); details: for solubility: filtrate, read-out: Concentration (in situ salt solubility)
Description: The sample was almost clear (little solid was observed) and filtered for a solubility test.

Solid state stability = experiment: Solid state stability; parameters: key to FC (form change): N: The form was not changed; details: for Purity: initial purity 99.62%
Description: Approximately 30 mg of each solid sample was added to an HPLC vial (sealed by Parafilm© and poked with several pinholes) and then stored at 25° C./60% RH, 40° C./75% RH and 60° C. for 28 days.
After 1/3/7/14/28 days storage, solids were taken out for HPLC and XRPD to evaluate chemical and physical stability, respectively.

[5] = 1.1 equiv. of citric acid in water
[6] = 1.1 equivalent of fumaric acid in water

In the case of CC(=O)NCC1CCN(Cc2cc(Oc3ccc(N4CCN(CCC(=O)O)CC4)nc3)nc(-c3cc(Cl)cc(Cl)c3)c2)CC1 [Freeform Type A], the “crystallinity after grinding (XRPD)” value (Grinding stability) is reported as “decreased after grinding”.

For CC(=O)NCC1CCN(Cc2cc(Oc3ccc(N4CCN(CCC(=O)O)CC4)nc3)nc(-c3cc(Cl)cc(Cl)c3)c2)CC1 [Freeform Type D], the solubility at 24 h ([1]; 5% (w/w) SBECD solution, aqueous with cosolvent or surfactant or cyclodextrin, 5% (w/w) SBECD, RT, 24 hours, final pH 7.8, read-out: Solubility) was 2610 µg/mL, the solubility at 24 h ([1]; 5% (w/w) SBECD solution, pH 7.8, aqueous with cosolvent or surfactant or cyclodextrin, 5% SBECD (54.23 mmol/L), read-out: API Solubility) was 4.07 mM and the solubility at 24 h ([1]; 10% (w/w) SBECD solution, aqueous with cosolvent or surfactant or cyclodextrin, 10% (w/w) SBECD, RT, 24 hours, final pH 7.9, read-out: Solubility) was 6470 µg/mL. It also gave a solubility at 24 h ([1]; 10% (w/w) SBECD solution, pH 7.9, aqueous with cosolvent or surfactant or cyclodextrin, 10% SBECD (108.46 mmol/L), read-out: API Solubility) of 10.1 mM, a solubility at 24 h ([1]; 15% (w/w) SBECD solution, aqueous with cosolvent or surfactant or cyclodextrin, 15% (w/w) SBECD, RT, 24 hours, final pH 7.9, read-out: Solubility) of 8810 µg/mL and a solubility at 24 h ([1]; 15% (w/w) SBECD solution, pH 7.9, aqueous with cosolvent or surfactant or cyclodextrin, 15% SBECD (162.70 mmol/L), read-out: API Solubility) of 13.7 mM. For the same molecule, the solubility at 24 h ([1]; 20% (w/w) SBECD solution, aqueous with cosolvent or surfactant or cyclodextrin, 20% (w/w) SBECD, RT, 24 hours, final pH 7.9, read-out: Solubility) was 9350 µg/mL, the solubility at 24 h ([1]; 20% (w/w) SBECD solution, pH 7.9, aqueous with cosolvent or surfactant or cyclodextrin, 20% SBECD (216.93 mmol/L), read-out: API Solubility) was 14.6 mM and the solubility at 24 h ([1]; 25% (w/w) SBECD solution, aqueous with cosolvent or surfactant or cyclodextrin, 25% (w/w) SBECD, RT, 24 hours, final pH 7.9, read-out: Solubility) was 11000 µg/mL. For the same molecule, the solubility at 24 h ([1]; 25% (w/w) SBECD solution, pH 7.9, aqueous with cosolvent or surfactant or cyclodextrin, 25% SBECD (271.16 mmol/L), read-out: API Solubility) was 17.1 mM, the “form change during solubility evaluation (XRPD)” value ([1]; SBECD solutions, 24 hours) was “No form change” and the “complexation stability constant K^1:1” value ([1]; SBECD, Higuchi-Connors phase-solubility method) was 3831 M⁻¹. The “thermodynamic relationship of the forms” value [2] was “thermodynamic form at the ambient conditions; also recorded: more stable hydrate form compared to freeform Type A”, the “form change after exposure to different humidity levels (XRPD)” value [3] was “no form change; also recorded: kinetically stable for at least 6 weeks” and the “HPLC purity of filtrates” value [4, 5] was 99.9% Area %. For the same molecule, the pH [4, 5] was 3.4, the “HPLC purity of filtrates” value [4, 6] was 99.8% Area % and the pH [4, 6] was 4.0. The solubility ([4]; water with 1.1 equivalent of citric acid, pH 3.4, thermodynamic from solid, 1.1 equiv. of citric acid in water) was 39300 µg/mL, the solubility ([4]; water with 1.1 equivalent of fumaric acid, pH 4, thermodynamic from solid, 1.1 equivalent of fumaric acid in water) was 1100 µg/mL and the “degradation or form change (HPLC, XRPD)” value (Solid state stability; 25° C./60% RH, 40° C./75% RH and 60° C. for 28 days) was “No significant degradation or form change”. For the same molecule, the “FC (form change)” value (Solid state stability; 25° C./60% RH, 28 days) was “N”, the Purity (Solid state stability; 25° C./60% RH, 28 days) was 99.6 area % and the “FC (form change)” value (Solid state stability; 40° C./75% RH, 1 day) was “N”. The Purity (Solid state stability; 40° C./75% RH, 1 day) was 99.69 area %, the “FC (form change)” value (Solid state stability; 40° C./75% RH, 3 days) was “N” and the Purity (Solid state stability; 40° C./75% RH, 3 days) was 99.56 area %. The “FC (form change)” value (Solid state stability; 40° C./75% RH, 7 days) was “N”, the Purity (Solid state stability; 40° C./75% RH, 7 days) was 99.59 area % and the “FC (form change)” value (Solid state stability; 40° C./75% RH, 14 days) was “N”. For the same molecule, the Purity (Solid state stability; 40° C./75% RH, 14 days) was 99.69 area %, the “FC (form change)” value (Solid state stability; 40° C./75% RH, 28 days) was “N” and the Purity (Solid state stability; 40° C./75% RH, 28 days) was 99.73 area %. For the same molecule, the “FC (form change)” value (Solid state stability; 60° C., 1 day) was “N”, the Purity (Solid state stability; 60° C., 1 day) was 99.74 area % and the “FC (form change)” value (Solid state stability; 60° C., 3 days) was “N”. For the same molecule, the Purity (Solid state stability; 60° C., 3 days) was 99.57 area %, the “FC (form change)” value (Solid state stability; 60° C., 7 days) was “N” and the Purity (Solid state stability; 60° C., 7 days) was 99.51 area %. The “FC (form change)” value (Solid state stability; 60° C., 14 days) was “N”, the Purity (Solid state stability; 60° C., 14 days) was 99.62 area % and the “FC (form change)” value (Solid state stability; 60° C., 28 days) was “N”. For the same molecule, the Purity (Solid state stability; 60° C., 28 days) was 99.66 area %.
